Source: patent publication US7332504B2, “Heterocyclic substituted aminoazacycles useful as central nervous system agents” (Abbott Laboratories, priority 1999, dated 2008)
Structures can show the parent of a compound that is named as a salt.

Molecular target: T1, neuronal nicotinic acetylcholine receptors (Rattus norvegicus, UniProt P09483+P12390)
T1 construct: crude synaptic membrane preparations from whole rat brain; from tissue; host or cells: whole rat brain, crude synaptic membranes
Experiment: Binding of [3H]-cytisine to neuronal nicotinic acetylcholine receptors, crude synaptic membranes from whole rat brain
Details: not given
Protocol: The In Vitro protocols for determination of nicotinic acetylcholine channel receptor binding potencies of ligands were determined as follows.
Binding of [^3H]-cytisine ([^3 H]-CYT) to neuronal nicotinic acetylcholine receptors was accomplished using crude synaptic membrane preparations from whole rat brain (Pabreza et al., Molecular Pharmacol., 1990, 39:9). Washed membranes were stored at —80° C. prior to use. Frozen aliquots were slowly thawed and resuspended in 20 volumes of buffer (containing: 120 mM NaCl, 5 mM KCl, 2 mM MgCl2, 2 mM CaCl2 and 50 mM Tris-Cl, pH 7.4 @4° C.). After centrifuging at 20,000×g for 15 minutes, the pellets were resuspended in 30 volumes of buffer.
The test compounds were dissolved in water to make 10 mM stock solutions. Each solution was then diluted (1:100) with buffer (as above) and further taken through seven serial log dilutions of produce test solution from 10^−5 to 10^−11 M.
Homogenate (containing 125-150 μg protein) was added to triplicate tubes containing the range of concentrations of test compound described above and [^3H]-CYT (1.25 nM) in a final volume of 500 μL. Samples were incubated for 60 minutes at 4° C., then rapidly filtered through Whatman GF/B filters presoaked in 0.5% polyethyleneimine using 3×4 mL of ice-cold buffer. The filter are counted in 4 mL of Ecolume® (ICN). Nonspecific binding was determined in the presence of 10 μM (−)-nicotine and values were expressed as a percentage of total binding. IC50 values were determined with the RS-1 (BBN) nonlinear least squares curve-fitting program and IC50 values were converted to Ki values using the Cheng and Prusoff correction ([…].

T1 sequence (P09483 31-630): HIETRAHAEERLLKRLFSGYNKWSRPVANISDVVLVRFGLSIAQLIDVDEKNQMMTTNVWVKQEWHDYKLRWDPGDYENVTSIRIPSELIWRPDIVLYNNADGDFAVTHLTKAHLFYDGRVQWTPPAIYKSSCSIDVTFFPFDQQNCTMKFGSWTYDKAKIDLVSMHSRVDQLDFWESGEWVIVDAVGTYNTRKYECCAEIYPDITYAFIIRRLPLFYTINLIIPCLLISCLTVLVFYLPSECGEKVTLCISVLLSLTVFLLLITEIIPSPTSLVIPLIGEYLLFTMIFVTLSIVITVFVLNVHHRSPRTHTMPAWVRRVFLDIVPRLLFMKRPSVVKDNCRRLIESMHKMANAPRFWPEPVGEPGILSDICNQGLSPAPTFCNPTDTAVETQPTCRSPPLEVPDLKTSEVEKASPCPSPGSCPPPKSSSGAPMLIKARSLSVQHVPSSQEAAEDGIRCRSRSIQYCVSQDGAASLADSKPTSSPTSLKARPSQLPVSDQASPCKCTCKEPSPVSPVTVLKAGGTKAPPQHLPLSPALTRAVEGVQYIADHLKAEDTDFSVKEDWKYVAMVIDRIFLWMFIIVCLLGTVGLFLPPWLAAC
T1 sequence (P12390 25-500): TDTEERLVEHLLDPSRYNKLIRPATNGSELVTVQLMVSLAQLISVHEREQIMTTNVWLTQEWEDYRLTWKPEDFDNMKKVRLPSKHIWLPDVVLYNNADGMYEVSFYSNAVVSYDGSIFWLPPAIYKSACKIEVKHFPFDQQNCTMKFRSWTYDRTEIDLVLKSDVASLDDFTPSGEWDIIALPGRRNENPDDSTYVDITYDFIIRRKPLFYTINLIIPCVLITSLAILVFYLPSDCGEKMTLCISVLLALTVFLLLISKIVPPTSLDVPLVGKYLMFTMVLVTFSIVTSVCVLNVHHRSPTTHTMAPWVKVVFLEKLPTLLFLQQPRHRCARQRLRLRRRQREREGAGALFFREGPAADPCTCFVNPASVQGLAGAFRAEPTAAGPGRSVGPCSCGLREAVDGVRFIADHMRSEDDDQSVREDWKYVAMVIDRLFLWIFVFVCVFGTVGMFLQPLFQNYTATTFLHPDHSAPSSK

Row | SMILES | Ki
1 | C[C@H]1CCN(c2ccc(Cl)nc2)C[C@H]1N (relative stereo) [Example 39, (cis) 1-(6-chloro-3-pyridinyl)-4-methyl-3-piperidinylamine hydrochloride] | 85 nM
2 | C[C@@H]1CCN(c2ccc(Cl)nc2)C[C@H]1N (relative stereo) [Example 40, (trans) 1-(6-chloro-3-pyridinyl)-4-methyl-3-piperidinylamine hydrochloride] | 5.4 nM
3 | CN[C@H]1CCN(c2ccc(Cl)nc2)C1 [Example 1, N-[(3S)-1-(6-chloro-3-pyridinyl)pyrrolidinyl]-N-methylamine hydrochloride] | 44 nM
4 | N[C@H]1CCN(c2ccc(Cl)nc2)C1 [Example 2, (3S)-1-(6-chloro-3-pyridinyl)pyrrolidinylamine dihydrochloride] | 0.1 nM
5 | CN(C)[C@H]1CCN(c2ccc(Cl)nc2)C1 [Example 3, N-[(3S)-1-(6-chloro-3-pyridinyl)pyrrolidinyl]-N,N-dimethylamine 4-methylbenzenesulfonate] | 61 nM
6 | N[C@@H]1CCN(c2ccc(Cl)nc2)C1 [Example 4, (3R)-1-(6-chloro-3-pyridinyl)pyrrolidinylamine 4-methylbenzenesulfonate] | 0.22 nM
7 | CN[C@@H]1CCN(c2ccc(Cl)nc2)C1 [Example 5, N-[(3R)-1-(6-chloro-3-pyridinyl)pyrrolidinyl]-N-methylamine hydrochloride] | 5.5 nM
8 | CN(C)[C@@H]1CCN(c2ccc(Cl)nc2)C1 [Example 6, N-[(3R)-1-(6-chloro-3-pyridinyl)pyrrolidinyl]-N,N-dimethylamine 4-methylbenzenesulfonate] | 100 nM
9 | NC1CCN(c2ccc(Cl)nc2)C1 (stereo not drawn) [Example 7, 1-(6-chloro-3-pyridinyl)-3-pyrrolidinylamine 4-methylbenzenesulfonate] | 0.12 nM
10 | N[C@H]1CCN(c2cccnc2)C1 [Example 8, (3S)-1-(3-pyridinyl)pyrrolidinylamine 4-methylbenzenesulfonate] | 0.23 nM
11 | CN[C@H]1CCN(c2cccnc2)C1 [Example 9, N-methyl-N-[(3S)-1-(3-pyridinyl)pyrrolidinyl]amine dihydrochloride] | 2 nM
12 | NC1CCN(c2cccnc2)C1 (stereo not drawn) [Example 10, 1-(3-pyridinyl)-3-pyrrolidinylamine bis(4-methylbenzenesulfonate)] | 0.15 nM
13 | N[C@@H]1CCN(c2cncc(C(F)(F)F)c2)C1 [Example 11, (3R)-1-[5-(trifluoromethyl)-3-pyridinyl]pyrrolidinylamine dihydrochloride] | 3 nM
14 | N[C@H]1CCN(c2cncc(C(F)(F)F)c2)C1 [Example 13, (3S)-1-[5-(trifluoromethyl)-3-pyridinyl]pyrrolidinylamine dihydrochloride] | 1 nM
15 | CN[C@H]1CCN(c2cncc(C(F)(F)F)c2)C1 [Example 14, N-methyl-N-{(3S)-1-[5-(trifluoromethyl)-3-pyridinyl]pyrrolidinyl}amine hydrochloride] | 6.3 nM
16 | Cc1cc(N2CC[C@@H](N)C2)cnc1Cl [Example 15, (3R)-1-(6-chloro-5-methyl-3-pyridinyl)pyrrolidinylamine hydrochloride] | 0.03 nM

Row | SMILES | Ki
17 | CN[C@@H]1CCN(c2cnc(Cl)c(C)c2)C1 [Example 16, N-[(3R)-1-(6-chloro-5-methyl-3-pyridinyl)pyrrolidinyl]-N-methylamine dihydrochloride] | 5.1 nM
18 | Cc1cc(N2CC[C@H](N)C2)cnc1Cl [Example 17, (3S)-1-(6-chloro-5-methyl-3-pyridinyl)pyrrolidinylamine dihydrochloride] | 0.03 nM
19 | CN[C@H]1CCN(c2cnc(Cl)c(C)c2)C1 [Example 18, N-[(3S)-1-(6-chloro-5-methyl-3-pyridinyl)pyrrolidinyl]-N-methylamine dihydrochloride] | 0.58 nM
20 | N[C@H]1CCN(c2cnc(Cl)c(Cl)c2)C1 [Example 19, (3S)-1-(5,6-dichloro-3-pyridinyl)pyrrolidinylamine dihydrochloride] | 0.05 nM
21 | CN[C@H]1CCN(c2cnc(Cl)c(Cl)c2)C1 [Example 20, N-[(3S)-1-(5,6-dichloro-3-pyridinyl)pyrrolidinyl]-N-methylamine hydrochloride] | 0.59 nM
22 | N[C@@H]1CCN(c2cnc(Cl)c(Cl)c2)C1 [Example 21, (3R)-1-(5,6-dichloro-3-pyridinyl)pyrrolidinylamine dihydrochloride] | 0.13 nM
23 | CN[C@@H]1CCN(c2cnc(Cl)c(Cl)c2)C1 [Example 22, N-[(3R)-1-(5,6-dichloro-3-pyridinyl)pyrrolidinyl]-N-methylamine hydrochloride] | 13 nM
24 | COc1cc(N2CC[C@H](N)C2)cnc1Cl [Example 23, (3S)-1-(6-chloro-5-methoxy-3-pyridinyl)pyrrolidinylamine dihydrochloride] | 0.13 nM
25 | CN[C@H]1CCN(c2cnc(F)c(C)c2)C1 [Example 26, N-[(3S)-1-(6-fluoro-5-methyl-3-pyridinyl)pyrrolidinyl]-N-methylamine dihydrochloride] | 1.5 nM
26 | Cc1cc(N2CC[C@@H](N)C2)cnc1F [Example 27, (3R)-1-(6-fluoro-5-methyl-3-pyridinyl)pyrrolidinylamine hydrochloride] | 0.44 nM
27 | CN[C@@H]1CCN(c2cnc(F)c(C)c2)C1 [Example 28, N-[(3R)-1-(6-fluoro-5-methyl-3-pyridinyl)pyrrolidinyl]-N-methylamine dihydrochloride] | 39 nM
28 | CN[C@H]1CCN(c2cncc([N+](=O)[O-])c2)C1 [Example 30, N-methyl-N-[(3S)-1-(5-nitro-3-pyridinyl)pyrrolidinyl]amine fumarate] | 12 nM
29 | CN[C@@H]1CCN(c2cncc([N+](=O)[O-])c2)C1 [Example 32, N-methyl-N-[(3R)-1-(5-nitro-3-pyridinyl)pyrrolidinyl]amine fumarate] | 195 nM
30 | CN[C@@H]1CCCN(c2cccnc2)C1 [Example 44, N-methyl-N-[(3R)-1-(3-pyridinyl)piperidinyl]amine dihydrochloride] | 205 nM
31 | N[C@@H]1CCN(c2cccnc2)[C@@H]1CCl [Example 51, (2S,3R)-2-(chloromethyl)-1-(3-pyridinyl)pyrrolidinylamine dihydrochloride] | 714 nM

Same assay, conditions: [3H]-cytisine 1.25 nM, whole rat brain membranes, 60 minutes at 4° C.; Ki from IC50 by Cheng and Prusoff correction; read-out: Average Ki

Row | SMILES | Ki
32 | CN[C@@H]1CCN(c2cncc(C(F)(F)F)c2)C1 [Example 12, N-methyl-N-{(3R)-1-[5-(trifluoromethyl)-3-pyridinyl]pyrrolidinyl}amine hydrochloride] | 114 nM
33 | NC1CCN(c2ccc(Cl)nc2)CC1 [Example 37, 1-(6-chloro-3-pyridinyl)-4-piperidinylamine 4-methylbenzenesulfonate] | 92 nM
34 | NC1CN(c2ccc(Cl)nc2)C1 [Example 50, 1-(6-chloro-3-pyridinyl)-3-azetidinylamine 4-methylbenzenesulfonate] | 174 nM

Tested on: mouse hot plate paradigm
Experiment: Mouse hot plate paradigm (analgesia)
Assay type: in vivo
Details: ip, 0.5 h, mice, intraperitoneal, dosed 30 minutes prior to testing, hot plate 55° C., increase in tenth jump latency relative to control, read-out: minimally effective dose (MED)
Protocol: An in vivo protocol was utilized to determine the effectiveness of nicotinic acetylcholine receptor ligands as analgesic agents in the mouse hot plate paradigm.
Separate groups of mice, (n=8/group) were utilized for each dose group. All drugs were administered by the intraperitoneal route of administration. Test drugs were dissolved in water to make a 6.2 mM stock solution. Animals were dosed with this solution (10 mL/kg body weight) for a 62 micromol/kg dose. Lower doses were administered similarly, following serial dilution of the stock solution in half-log increments. Animals were dosed 30 minutes prior to testing in the hot plate. The hot-plate utilized was an automated analgesia monitor (Model #AHP16AN, Omnitech Electronics, Inc. of Columbus, Ohio). The temperature of the hot plate was maintained at 55° C. and a cut-off time of 180 seconds was utilized. Latency until the tenth jump was recoreded as the dependent measure. An increase in the tenth jump latency relative to the control was considered an effect.

Row | SMILES | minimal effective dose
35 | CN[C@H]1CCN(c2ccc(Cl)nc2)C1 [Example 1, N-[(3S)-1-(6-chloro-3-pyridinyl)pyrrolidinyl]-N-methylamine hydrochloride] | 62 µmol/kg
36 | N[C@H]1CCN(c2ccc(Cl)nc2)C1 [Example 2, (3S)-1-(6-chloro-3-pyridinyl)pyrrolidinylamine dihydrochloride] | 6.2 µmol/kg
37 | CN(C)[C@H]1CCN(c2ccc(Cl)nc2)C1 [Example 3, N-[(3S)-1-(6-chloro-3-pyridinyl)pyrrolidinyl]-N,N-dimethylamine 4-methylbenzenesulfonate] | 62 µmol/kg
38 | N[C@@H]1CCN(c2ccc(Cl)nc2)C1 [Example 4, (3R)-1-(6-chloro-3-pyridinyl)pyrrolidinylamine 4-methylbenzenesulfonate] | 1.9 µmol/kg
39 | CN[C@@H]1CCN(c2ccc(Cl)nc2)C1 [Example 5, N-[(3R)-1-(6-chloro-3-pyridinyl)pyrrolidinyl]-N-methylamine hydrochloride] | 62 µmol/kg
40 | NC1CCN(c2ccc(Cl)nc2)C1 (stereo not drawn) [Example 7, 1-(6-chloro-3-pyridinyl)-3-pyrrolidinylamine 4-methylbenzenesulfonate] | 6.2 µmol/kg
41 | N[C@H]1CCN(c2cccnc2)C1 [Example 8, (3S)-1-(3-pyridinyl)pyrrolidinylamine 4-methylbenzenesulfonate] | 19 µmol/kg
42 | CN[C@H]1CCN(c2cccnc2)C1 [Example 9, N-methyl-N-[(3S)-1-(3-pyridinyl)pyrrolidinyl]amine dihydrochloride] | 62 µmol/kg
43 | Cc1cc(N2CC[C@@H](N)C2)cnc1Cl [Example 15, (3R)-1-(6-chloro-5-methyl-3-pyridinyl)pyrrolidinylamine hydrochloride] | 6.2 µmol/kg
44 | CN[C@@H]1CCN(c2cnc(Cl)c(C)c2)C1 [Example 16, N-[(3R)-1-(6-chloro-5-methyl-3-pyridinyl)pyrrolidinyl]-N-methylamine dihydrochloride] | 1.9 µmol/kg
45 | Cc1cc(N2CC[C@H](N)C2)cnc1Cl [Example 17, (3S)-1-(6-chloro-5-methyl-3-pyridinyl)pyrrolidinylamine dihydrochloride] | 6.2 µmol/kg
46 | CN[C@H]1CCN(c2cnc(Cl)c(C)c2)C1 [Example 18, N-[(3S)-1-(6-chloro-5-methyl-3-pyridinyl)pyrrolidinyl]-N-methylamine dihydrochloride] | 6.2 µmol/kg
47 | N[C@H]1CCN(c2cnc(Cl)c(Cl)c2)C1 [Example 19, (3S)-1-(5,6-dichloro-3-pyridinyl)pyrrolidinylamine dihydrochloride] | 6.2 µmol/kg
48 | CN[C@H]1CCN(c2cnc(Cl)c(Cl)c2)C1 [Example 20, N-[(3S)-1-(5,6-dichloro-3-pyridinyl)pyrrolidinyl]-N-methylamine hydrochloride] | 19 µmol/kg
49 | N[C@@H]1CCN(c2cnc(Cl)c(Cl)c2)C1 [Example 21, (3R)-1-(5,6-dichloro-3-pyridinyl)pyrrolidinylamine dihydrochloride] | 6.2 µmol/kg
50 | CN[C@@H]1CCN(c2cnc(Cl)c(Cl)c2)C1 [Example 22, N-[(3R)-1-(5,6-dichloro-3-pyridinyl)pyrrolidinyl]-N-methylamine hydrochloride] | 19 µmol/kg
51 | COc1cc(N2CC[C@H](N)C2)cnc1Cl [Example 23, (3S)-1-(6-chloro-5-methoxy-3-pyridinyl)pyrrolidinylamine dihydrochloride] | 62 µmol/kg
